Structures are written as SMILES.

The first series has as its system caterpillars of the armyworm (Spodoptera frugiperda). As to the kind of experiment: Spodoptera frugiperda spray test (SPODFR). The series is classed as in vivo. The conditions noted are these: 100 g/ha, spray, after 7 days. On the procedure:
Spodoptera frugiperda—Spray Test (SPODFR) Solvent: 78.0 parts by weight of acetone • • 1.5 parts by weight of dimethylformamide Emulsifier: alkylaryl polyglycol ether To produce a suitable active compound formulation, 1 part by weight of active compound is dissolved using the specified parts by weight of solvent and made up with water containing an emulsifier concentration of 1000 ppm until the desired concentration is attained. To produce further test concentrations, the preparation is diluted with emulsifier-containing water. Leaf discs of maize (Zea mays) are sprayed with an active compound formulation of the desired concentration and, after drying, populated with caterpillars of the armyworm (Spodoptera frugiperda). After 7 days, the efficacy in % is determined 100% means that all the caterpillars have been killed; 0% means that no caterpillars have been killed. Spodoptera frugiperda—Spray Test (SPODFR) Solvent: 78.0 parts by weight of acetone • • 1.5 parts by weight of dimethylformamide Emulsifier: alkylaryl polyglycol ether To produce a suitable active compound formulation, 1 part by weight of active compound is dissolved using the specified parts by weight of solvent and made up with water containing an emulsifier concentration of 1000 ppm until the desired concentration is attained. To produce further test concentrations, the preparation is diluted with emulsifier-containing water. Leaf discs of maize (Zea mays) are sprayed with an active compound formulation of the desired concentration and, after drying, populated with caterpillars of the armyworm (Spodoptera frugiperda). After the desired period of time, the efficacy in % is determined. 100% means that all the caterpillars have been killed; 0% means that no caterpillars have been killed.
With `CCn1c(C(=O)NC(c2cc(Cl)c(F)c(Cl)c2F)C(F)(F)F)cc2cc(C(=O)NC3(C(N)=S)CC3)c(Cl)cc21` (single isomer, unassigned) [I-17], the efficacy is given as 100%.

As for `CCn1c(C(=O)NC(c2cc(Cl)c(F)c(Cl)c2F)C(F)(F)F)cc2cc(C(=O)NC3(C(N)=S)CC3)c(Cl)cc21` (single isomer, unassigned) [I-18], the efficacy is recorded as 100%.

In the case of `CCn1c(C(=O)NC(c2ccc(F)c(Br)c2)C(F)(F)F)cc2cc(C(=O)NC3(C(N)=S)CC3)c(Cl)cc21` (stereo not drawn) [I-06], the efficacy turned out to be 100%.

The series is the same for the next values; noted with them: SPODFR, 0.8 g/ha, 7 dat.
Consider `CCn1c(C(=O)NC(c2cc(Cl)c(F)c(Cl)c2F)C(F)(F)F)cc2cc(C(=O)NC3(C(N)=S)CC3)c(Cl)cc21` (single isomer, unassigned) [I-18], for which the “% efficacy” value worked out at 100%.

For the compound `CCn1c(C(=O)NC(c2ccc(F)c(Br)c2)C(F)(F)F)cc2cc(C(=O)NC3(C(N)=S)CC3)c(Cl)cc21` (stereo not drawn) [I-06], the “% efficacy” value came out at 100%.

The same series, now with this note: SPODFR, 4 g/ha, 7 dat.
On to `CCn1c(C(=O)NC(c2cc(Cl)c(F)c(Cl)c2F)C(F)(F)F)cc2cc(C(=O)NC3(C(N)=S)CC3)c(Cl)cc21` (single isomer, unassigned) [I-18], for which the “% efficacy” value is on record as 100%.

On to `CCn1c(C(=O)NC(c2ccc(F)c(Br)c2)C(F)(F)F)cc2cc(C(=O)NC3(C(N)=S)CC3)c(Cl)cc21` (stereo not drawn) [I-06], for which the “% efficacy” value is listed as 100%.

System in the next series: not listed separately
As to the kind of experiment: log P by HPLC (EEC directive 79/831 Annex V.A8). Type of series: physicochemical. As to conditions: HPLC, reversed-phase column (C18), 43° C., acidic range pH 2.7. On the procedure: a) The determination of the M^+ by LC-MS in the acidic range is effected at pH 2.7, acetonitrile (contains 0.1% formic acid) and water as eluents; linear gradient from 10% acetonitrile to 95% acetonitrile, instrument: Agilent 1100 LC system, Agilent MSD system, HTS PAL. The log P values reported in the tables and Preparation Examples above were determined in accordance with EEC directive 79/831 Annex V.A8 by HPLC (High Performance Liquid Chromatography) using a reversed-phase column (C18). Temperature 43° C. The calibration is effected with unbranched alkan-2-ones (having 3 to 16 carbon atoms), for which the logP values are known.
As for `CCn1c(C(=O)NC(c2cc(Cl)c(F)c(Cl)c2F)C(F)(F)F)cc2cc(C(=O)NC3(C(N)=S)CC3)c(Cl)cc21` (single isomer, unassigned) [I-17], the lipophilicity (log P) is recorded as 4.27;.

Turning to `CCn1c(C(=O)NC(c2cc(Cl)c(F)c(Cl)c2F)C(F)(F)F)cc2cc(C(=O)NC3(C(N)=S)CC3)c(Cl)cc21` (single isomer, unassigned) [I-18], the “log P” value is reported as 4.27;.

On to `CCn1c(C(=O)NC(c2ccc(F)c(Br)c2)C(F)(F)F)cc2cc(C(=O)NC3(C(N)=S)CC3)c(Cl)cc21` (stereo not drawn) [I-06], for which the log partition coefficient (log P) amounted to 3.64.

The next series deals with adult cat fleas (Ctenocephalides felis). As to the kind of experiment: Ctenocephalides felis oral test (CTECFE). The series is classed as in vivo. The conditions noted are these: 100 ppm, oral in cattle blood, after 2 days. The procedure: Ctenocephalides felis-Oral Test ([…]) Solvent: dimethyl sulphoxide To produce a suitable active compound formulation, 10 mg of active compound are mixed with 0.5 ml of dimethyl sulphoxide. Dilution with citrated cattle blood gives the desired concentration. About 20 unfed adult cat fleas (Ctenocephalides felis) are placed into a chamber which is closed at the top and bottom with gauze. A metal cylinder whose bottom end is closed with parafilm is placed onto the chamber. The cylinder contains the blood/active compound preparation, which can be imbibed by the fleas through the parafilm membrane. After 2 days, the kill in % is determined 100% means that all of the fleas have been killed; 0% means that none of the fleas have been killed.
Take `CCn1c(C(=O)NC(c2cc(Cl)c(F)c(Cl)c2F)C(F)(F)F)cc2cc(C(=O)NC3(C(N)=S)CC3)c(Cl)cc21` (single isomer, unassigned) [I-17]: the “efficacy (kill in %)” value worked out at 100%.

Take `CCn1c(C(=O)NC(c2cc(Cl)c(F)c(Cl)c2F)C(F)(F)F)cc2cc(C(=O)NC3(C(N)=S)CC3)c(Cl)cc21` (single isomer, unassigned) [I-18]: the “efficacy (kill in %)” value turned out to be 100%.

The subject of a further series is greenhouse red spider mite (Tetranychus urticae). As to the kind of experiment: Tetranychus urticae spray test, OP-resistant (TETRUR). Type of series: in vivo. As to conditions: 100 g/ha, spray, after 6 days. The procedure:
Tetranychus urticae—Spray Test, OP-Resistant (TETRUR)
(§1) Solvent: 78.0 parts by weight of acetone • • 1.5 parts by weight of dimethylformamide
(§2) Emulsifier: alkylaryl polyglycol ether
(§3) To produce a suitable active compound formulation, 1 part by weight of active compound is dissolved using the specified parts by weight of solvent and made up with water containing an emulsifier concentration of 1000 ppm until the desired concentration is attained. To produce further test concentrations, the preparation is diluted with emulsifier-containing water.
Discs of bean leaves (Phaseolus vulgaris) infested by all stages of the greenhouse red spider mite (Tetranychus urticae) are sprayed with an active compound formulation of the desired concentration.
After 6 days, the efficacy in % is determined 100% means that all the spider mites have been killed; 0% means that none of the spider mites have been killed.
Tetranychus urticae—Spray Test; OP-Resistant (TETRUR)
After the desired period of time, the efficacy in % is determined 100% means that all the spider mites have been killed; 0% means that none of the spider mites have been killed.
Consider `CCn1c(C(=O)NC(c2cc(Cl)c(F)c(Cl)c2F)C(F)(F)F)cc2cc(C(=O)NC3(C(N)=S)CC3)c(Cl)cc21` (single isomer, unassigned) [I-17], for which the efficacy is reported as 100%.

`CCn1c(C(=O)NC(c2cc(Cl)c(F)c(Cl)c2F)C(F)(F)F)cc2cc(C(=O)NC3(C(N)=S)CC3)c(Cl)cc21` (single isomer, unassigned) [I-18] came in with an efficacy of 100%.

Consider `CCn1c(C(=O)NC(c2ccc(F)c(Br)c2)C(F)(F)F)cc2cc(C(=O)NC3(C(N)=S)CC3)c(Cl)cc21` (stereo not drawn) [I-06], for which the efficacy is 100%.

The next series concerns larvae of the mustard beetle (Phaedon cochleariae). As to the kind of experiment: Phaedon cochleariae spray test (PHAECO). Type of series: in vivo. As to conditions: 100 g/ha, after 7 days. On the procedure:
Phaedon cochleariae—Spray Test (PHAECO)
as §1, §2, §3
After 7 days, the efficacy in % is determined. 100% means that all the beetle larvae have been killed; 0% means that no beetle larvae have been killed.
Compound `CCn1c(C(=O)NC(c2cc(Cl)c(F)c(Cl)c2F)C(F)(F)F)cc2cc(C(=O)NC3(C(N)=S)CC3)c(Cl)cc21` (single isomer, unassigned) [I-17] gave an efficacy of 100%.

Compound `CCn1c(C(=O)NC(c2cc(Cl)c(F)c(Cl)c2F)C(F)(F)F)cc2cc(C(=O)NC3(C(N)=S)CC3)c(Cl)cc21` (single isomer, unassigned) [I-18] displayed an efficacy of 100%.

On to `CCn1c(C(=O)NC(c2ccc(F)c(Br)c2)C(F)(F)F)cc2cc(C(=O)NC3(C(N)=S)CC3)c(Cl)cc21` (stereo not drawn) [I-06], for which the efficacy amounted to 100%.

The next series concerns engorged adult female cattle ticks (Boophilus microplus). As to the kind of experiment: Boophilus microplus injection test (BOOPMI inj). The series is classed as in vivo. The conditions noted are these: assessed after 7 days. On the procedure: Boophilus microplus Injection Test (BOOPMI inj) Solvent: dimethyl sulphoxide To produce a suitable active compound formulation, 10 mg of active compound are mixed with 0.5 ml of solvent and the concentrate is diluted with solvent to the desired concentration. 1 μl of the active compound solution is injected into the abdomen of 5 engorged adult female cattle ticks (Boophilus microplus). The animals are transferred into dishes and kept in a climate-controlled room. The efficacy is assessed after 7 days by laying of fertile eggs. Eggs which are not visibly fertile are stored in a climate-controlled cabinet until the larvae hatch after about 42 days. An efficacy of 100% means that none of the ticks has laid any fertile eggs; 0% means that all the eggs are fertile.
In the case of `CCn1c(C(=O)NC(c2cc(Cl)c(F)c(Cl)c2F)C(F)(F)F)cc2cc(C(=O)NC3(C(N)=S)CC3)c(Cl)cc21` (single isomer, unassigned) [I-17], the “efficacy (laying of fertile eggs)” value was 100%.

As to `CCn1c(C(=O)NC(c2cc(Cl)c(F)c(Cl)c2F)C(F)(F)F)cc2cc(C(=O)NC3(C(N)=S)CC3)c(Cl)cc21` (single isomer, unassigned) [I-18], the “efficacy (laying of fertile eggs)” value is recorded as 100%.

A further series relates to L1 larvae of the Australian sheep blowfly (Lucilia cuprina). As to the kind of experiment: Lucilia cuprina test (LUCICU). The series is classed as in vivo. The conditions noted are these: 100 ppm, after 2 days. The procedure:
Lucilia cuprina Test (LUCICU) Solvent: dimethyl sulphoxide To produce a suitable active compound formulation, 10 mg of active compound are mixed with 0.5 ml of dimethyl sulphoxide, and the concentrate is diluted with water to the desired concentration. About 20 L1 larvae of the Australian sheep blowfly (Lucilia cuprina) are transferred into a test vessel containing minced horsemeat and the active compound preparation of the desired concentration. After 2 days, the kill in % is determined 100% means that all the larvae have been killed; 0% means that none of the larvae have been killed.
Take `CCn1c(C(=O)NC(c2cc(Cl)c(F)c(Cl)c2F)C(F)(F)F)cc2cc(C(=O)NC3(C(N)=S)CC3)c(Cl)cc21` (single isomer, unassigned) [I-17]: the “efficacy (kill in %)” value stood at 90%.

In the case of `CCn1c(C(=O)NC(c2cc(Cl)c(F)c(Cl)c2F)C(F)(F)F)cc2cc(C(=O)NC3(C(N)=S)CC3)c(Cl)cc21` (single isomer, unassigned) [I-18], the “efficacy (kill in %)” value turned out to be 100%.

For a further series, the system named is adult houseflies (Musca domestica). As to the kind of experiment: Musca domestica test (MUSCDO). The series is classed as in vivo. The conditions noted are these: 100 ppm, after 2 days. On the procedure: Musca domestica Test (MUSCDO) Solvent: dimethyl sulphoxide To produce a suitable active compound formulation, 10 mg of active compound are mixed with 0.5 ml of dimethyl sulphoxide, and the concentrate is diluted with water to the desired concentration. Vessels containing a sponge treated with sugar solution and the active compound preparation of the desired concentration are populated with 10 adult houseflies (Musca domestica). After 2 days, the kill in % is determined. 100% means that all of the flies have been killed; 0% means that none of the flies have been killed.
Take `CCn1c(C(=O)NC(c2cc(Cl)c(F)c(Cl)c2F)C(F)(F)F)cc2cc(C(=O)NC3(C(N)=S)CC3)c(Cl)cc21` (single isomer, unassigned) [I-17]: the “efficacy (kill in %)” value is 80%.

As for `CCn1c(C(=O)NC(c2cc(Cl)c(F)c(Cl)c2F)C(F)(F)F)cc2cc(C(=O)NC3(C(N)=S)CC3)c(Cl)cc21` (single isomer, unassigned) [I-18], the “efficacy (kill in %)” value is on record as 100%.

Source of the values: patent US9802895B2, “Indole and benzimidazolecarboxamides as insecticides and acaricides” (BAYER CROPSCIENCE AKTIENGESELLSCHAFT, priority 2014, dated 2017).
